The text below walks through data of ChEMBL document CHEMBL5104163, “Modulation of key antioxidant enzymes and cell cycle arrest as a possible antifungal mode of action of cinnamaldehyde based azole derivative” (2022).

SMILES strings stand for the structures. Converted amounts (≈) assume the structure as drawn. The source made the active and inactive calls. No cut-off for these calls is given here.

The subject of assay [1] is [Candida] auris. Description: Antifungal activity against Candida auris MRL6057. The assay is classed as functional. Conditions: Candidozyma auris.
The subject of assay [2] is [Candida] auris. Description: Antifungal activity against clinical strain Candida auris. The assay is classed as functional. Conditions: Candidozyma auris.
The test system of assay [3] is [Candida] auris. The experiment in a line: Antifungal activity against Candida auris MRL6057 assessed as dead cells at 0.49 ug/ml. Format: functional, Candidozyma auris. The note with it: dose 0.49 µg/ml.
Assay [4] concerns [Candida] auris. Description: Antifungal activity against Candida auris MRL6057 assessed as dead cells at 0.98 ug/ml. The assay is classed as functional, Candidozyma auris. The note with it: dose 0.98 µg/ml.
The subject of assay [5] is [Candida] auris. Description: Antifungal activity against Candida auris MRL6057 assessed as dead cells at 1.96 ug/ml. The note with it: dose 1.96 µg/ml. Format: functional, Candidozyma auris.
In another assay the test system is Candida albicans. The experiment in a line: Antifungal activity against Candida albicans assessed as dead cells. The assay is classed as functional.
Assay [6] has as its system [Candida] auris. Description: Induction of cell cycle arrest in Candida auris MRL6057 cells assessed as cell population at G0/G1 phase at 0.5xMIC measured by Muse cell analyzer. Format: functional, Candidozyma auris.
Assay [7] concerns [Candida] auris. Description: Induction of cell cycle arrest in Candida auris MRL6057 cells assessed as cell population at S phase at 0.5xMIC measured by Muse cell analyzer. The assay is classed as functional, Candidozyma auris.
Assay [8] has as its system [Candida] auris. The experiment in a line: Induction of cell cycle arrest in Candida auris MRL6057 cells assessed as cell population at G2/M phase at 0.5xMIC measured by Muse cell analyzer. Format: functional, Candidozyma auris.
The subject of assay [9] is [Candida] auris. Description: Induction of cell cycle arrest in Candida auris MRL6057 cells assessed as cell population at G0/G1 phase at MIC measured by Muse cell analyzer. The assay is classed as functional, Candidozyma auris.
Assay [10] has as its system [Candida] auris. The experiment in a line: Induction of cell cycle arrest in Candida auris MRL6057 cells assessed as cell population at S phase at MIC measured by Muse cell analyzer. Format: functional, Candidozyma auris.
The test system of assay [11] is [Candida] auris. Description: Induction of cell cycle arrest in Candida auris MRL6057 cells assessed as cell population at G2/M phase at MIC measured by Muse cell analyzer. The assay is classed as functional, Candidozyma auris.
Assay [12] concerns [Candida] auris. Description: Induction of oxidative stress in Candida auris MRL6057 incubated for 2 hrs and assessed as increase in LPO activity. Format: functional, organism-based. Conditions: Candidozyma auris.
Assay [13] has as its system [Candida] auris. Description: Induction of oxidative stress in Candida auris MRL6057 incubated for 2 hrs assessed as increase in CAT activity. The assay is classed as functional, organism-based. Conditions: Candidozyma auris.
Assay [14] concerns [Candida] auris. The experiment in a line: Induction of oxidative stress in Candida auris MRL6057 incubated for 2 hrs assessed as increase in SOD activity. The assay is classed as functional, organism-based. Conditions: Candidozyma auris.
The test system of assay [15] is [Candida] auris. Description: Induction of oxidative stress in Candida auris MRL6057 incubated for 2 hrs assessed as increase in GPx activity. The assay is classed as functional, organism-based. The note with it: Candidozyma auris.
Assay [16] concerns [Candida] auris. The experiment in a line: Induction of oxidative stress in Candida auris MRL6057 incubated for 2 hrs assessed as decrease in GLR activity. Conditions: Candidozyma auris. The assay is classed as functional, organism-based.
For assay [17], the system named is [Candida] auris. Description: Induction of oxidative stress in Candida auris MRL6057 incubated for 2 hrs assessed as decrease in GST activity. The assay is classed as functional, organism-based. Conditions: Candidozyma auris.
The subject of assay [18] is [Candida] auris. Description: Induction of oxidative stress in Candida auris MRL6057 incubated for 2 hrs and assessed as upregulation of CATA mRNA expression measured by RT-qPCR analysis. The assay is classed as functional, organism-based. Conditions: Candidozyma auris.
In assay [19] the test system is [Candida] auris. The experiment in a line: Induction of oxidative stress in Candida auris MRL6057 incubated for 2 hrs and assessed as upregulation of SOD4 mRNA expression measured by RT-qPCR analysis. The assay is classed as functional, organism-based. Conditions: Candidozyma auris.
Assay [20] deals with [Candida] auris. Description: Induction of oxidative stress in Candida auris MRL6057 incubated for 2 hrs and assessed as upregulation of GPx3 mRNA expression measured by RT-qPCR analysis. The assay is classed as functional, organism-based. Conditions: Candidozyma auris.
The subject of assay [21] is [Candida] auris. The experiment in a line: Induction of oxidative stress in Candida auris MRL6057 incubated for 2 hrs and assessed as downregulation of GST1 mRNA expression measured by RT-qPCR analysis. Format: functional, organism-based. The note with it: Candidozyma auris.
The test system of assay [22] is [Candida] auris. The experiment in a line: Induction of oxidative stress in Candida auris MRL6057 incubated for 2 hrs and assessed as downregulation of GSHR mRNA expression measured by RT-qPCR analysis. Format: functional, organism-based. Conditions: Candidozyma auris.

As for `C[C@@H]1[C@H](O)[C@@H](C)/C=C/C=C/C=C/C=C/C=C/C=C/C=C/[C@H](O[C@@H]2O[C@H](C)[C@@H](O)[C@H](N)[C@@H]2O)C[C@@H]2O[C@](O)(C[C@@H](O)C[C@@H](O)[C@H](O)CC[C@@H](O)C[C@@H](O)CC(=O)O[C@H]1C)C[C@H](O)[C@H]2C(=O)O` [AMPHOTERICIN B], the minimum fungicidal concentration (MFC) in assay [Candida] auris [1] is 8 µg/mL (≈ 8.66 µM). Moreover, the minimal inhibitory concentration (MIC) in assay [Candida] auris [1] was 4 µg/mL (≈ 4.33 µM); in assay [Candida] auris [2], no less than 2 µg/mL.
Consider `O=C(Cn1nnc(/C=C/c2ccccc2)n1)N/N=C/c1ccc([N+](=O)[O-])cc1`, for which the MFC in [Candida] auris [1] worked out at 1.96 µg/mL (≈ 5.19 µM). The compound also came in with a minimum inhibitory concentration (MIC) in [Candida] auris [1] of 0.98 µg/mL (≈ 2.6 µM). Moreover, the Activity turned out to be 69.2% in [Candida] auris [3]; 83.1% in [Candida] auris [4]; 99.9% in assay [Candida] auris [5]; 75% with Candida albicans; 48.2% in assay [Candida] auris [6]; 44.5% in assay [Candida] auris [7]. Moreover, the Activity in [Candida] auris [8] was determined as 7.2%; in [Candida] auris [9], 2.3%; in assay [Candida] auris [10], 49.3%; in assay [Candida] auris [11] it was 48.3%. For the same compound, the outcome in [Candida] auris [12], in assay [Candida] auris [13], in assay [Candida] auris [14], in [Candida] auris [15], in assay [Candida] auris [16] and in assay [Candida] auris [17] was Active. The result in assay [Candida] auris [18], in [Candida] auris [19], in assay [Candida] auris [20], in [Candida] auris [21] and in assay [Candida] auris [22] was Active.
